Where two headings read alike, the source gives them in different places. One block for each compound: values may come before it.
Assays:
[1] = system: RAW264.7 cells; conditions: reported by NICM Health Research Institute; cited from earlier work
[2] = system: LPS-induced RAW264.7 cells; test: Inhibition of NO release in LPS-induced RAW264.7 cells, with Chou-Talalay synergy analysis (Experimental Example 1); type: cell-based, mouse; conditions: for NO Production Rate: LPS 50 ng/mL 24 h, LPS without drug = 100%; for IC50: read-out: IC50 (concentration at which NO production is 50%), LPS-induced RAW264.7 cells, NO release
Experimental: RAW264.7 cells were seeded in a 96-well cell culture plate at 1×10^6/mL and cultured for 24 h. […] The cells were pretreated with the serially diluted drug solutions for 2 h, and then treated with LPS (50 ng/mL) for 24 h. The cell supernatant was aspirated, the NO release level in the supernatant was determined, and the IC50 values of the four groups of drugs inhibiting NO release were calculated. The dose-effect relationships of the three single components and the three-component composition were imported into CalcuSyn software 2.0 (Biosoft, USA), and the inhibition rate-combination index plot (Fa-CI) was generated using the Chou-Talalay mathematical model. The Fa-CI plot can reflect the relationship between the CI value and the effective level of a certain biological index (i.e., the inhibitory effect on NO). The intensity and nature of the interaction between drugs can be quantitatively judged by the value of CI: CI>1 indicates antagonism, CI=1 indicates additive effect, and CI<1 indicates synergism.

[3] = system: ALI mice induced by LPS; test: Mouse acute lung injury model: lung index, W/D, BALF leukocytes and protein (Experimental Example 5); type: in vivo; conditions: three-component 398 mg/kg intragastric, dexamethasone 5 mg/kg i.p.
Experimental: (§1) Establishment of mouse acute lung injury model: Mice were anesthetized with isoflurane, and LPS (1 mg/kg) was instilled into one side of the nasal cavity. After instillation, the mice were stood upright quickly, and returned to the original feeding cage after waking up to complete modeling.
(§2) All drugs were administered 0.5 h after establishing the mouse ALI model with LPS.
24 h after model establishment, mice were anesthetized with pentobarbital sodium and sacrificed by abdominal aorta bloodletting. Lung tissues were dissected and weighed, and the lung coefficient (lung tissue weight/mouse body weight) was calculated; the right upper lobe of the mouse lung was fixed in formalin, and pathological sections were made and stained with HE to observe pathological changes; the middle and lower lobes of the right lung of the mouse were weighed (wet weight), placed in a 60° C. oven to dry to constant weight, and weighed (dry weight), and the wet-to-dry weight ratio (wet weight/dry weight, W/D) was calculated. The right bronchus of the mouse was ligated, the left lobe of the lung was taken, and bronchoalveolar lavage fluid (BALF) was recovered after lavage with 0.8 mL PBS for three times. The total number of leukocytes and total protein concentration were determined using an automatic cell counter.

[4] = system: ALI mice induced by LPS; test: Mouse acute lung injury model: BALF inflammatory factors and lung pathology (Experimental Example 6); type: in vivo; conditions: three-component 398 mg/kg intragastric, dexamethasone 5 mg/kg i.p.
Experimental: as §1, §2
The levels of inflammatory factors IL-1B, IL-6 and TNF-α in BALF were determined in strict accordance with the instructions of the inflammatory factor detection kit.
The right upper lobe of the mouse lung was fixed with tissue fixative for 72 hours, and HE-stained sections were prepared by paraffin embedding, sectioning, dehydration and staining. Lung tissue lesions were observed under a microscope.

Structure (SMILES): C=C1CC[C@@H]2[C@](C)(CO)[C@H](O)CC[C@@]2(C)[C@@H]1C/C=C1/C(=O)OC[C@H]1O [andrographolide]
inhibiting LPS-induced NO release from RAW264.7 cells [1]: a certain effect

IC50 ([2]; Mus musculus): 78.8 ± 11.9 µM
Structure (SMILES): CC1(C)[C@@H](O[C@H]2O[C@H](C(=O)O)[C@@H](O)[C@H](O)[C@H]2O[C@@H]2O[C@H](C(=O)O)[C@@H](O)[C@H](O)[C@H]2O)CC[C@]2(C)[C@H]3C(=O)C=C4[C@@H]5C[C@@](C)(C(=O)O)CC[C@]5(C)CC[C@@]4(C)[C@]3(C)CC[C@@H]12 [Glycyrrhizic Acid, glycyrrhizic acid]
NO Production Rate ([2]; 0.86 μM): 105.02 ± 8.02% | NO Production Rate ([2]; 1.63 μM): 88.06 ± 5.38% | NO Production Rate ([2]; 3.125 μM): 86.28 ± 2.29% | NO Production Rate ([2]; 6.25 μM): 81.79 ± 5.81% | NO Production Rate ([2]; 12.5 μM): 80.67 ± 4.74% | NO Production Rate ([2]; 25 μM): 71.04 ± 3.50% | NO Production Rate ([2]; 50 μM): 55.35 ± 3.98% | NO Production Rate ([2]; 100 μM): 43.54 ± 6.10% | inhibiting LPS-induced NO release from RAW264.7 cells [1]: a certain effect

Structure (SMILES): C[C@@H]1C[C@H]2[C@@H]3CCC4=CC(=O)C=C[C@]4(C)[C@@]3(F)[C@@H](O)C[C@]2(C)[C@@]1(O)C(=O)CO [Dexamethasone, dexamethasone]
BALF Leukocytes ([3]; 24 h after LPS): 18.760 ± 7.468 ×10^5 cells/mL | BALF Protein Concentration ([3]; 24 h after LPS): 0.814 ± 0.183 mg/mL | Lung Index (BW) ([3]; lung tissue weight/body weight, 24 h after LPS 1 mg/kg intranasal, 0.5 h after LPS): 0.816 ± 0.089 | Wet-to-Dry Weight Ratio (W/D) ([3]; right lung lobes, 24 h after LPS): 4.701 ± 0.221 | IL-1β in BALF ([4]; ALI mice, 24 h after LPS): 186.475 ± 76.810 pg/mL | IL-6 in BALF ([4]; ALI mice, 24 h after LPS): 819.19 ± 506.63 pg/mL | TNF-α in BALF ([4]; ALI mice, 24 h after LPS): 345.080 ± 239.594 pg/mL | Pathological Score ([4]; lung tissue, HE staining): 6.70 ± 2.50

IC50 ([2]; Mus musculus): 11.3 ± 1.32 µM
Structure (SMILES): O=c1cc(-c2ccccc2)oc2cc(O)c(O)c(O)c12 [Baicalein, baicalein]
NO Production Rate ([2]; 0.86 μM): 90.14 ± 7.64% | NO Production Rate ([2]; 12.5 μM): 60.52 ± 5.14% | NO Production Rate ([2]; 25 μM): 40.47 ± 6.87% | NO Production Rate ([2]; 50 μM): 7.77 ± 3.47% | NO Production Rate ([2]; 100 μM): 2.44 ± 2.33% | inhibiting LPS-induced NO release from RAW264.7 cells [1]: a certain effect

Structure (SMILES): O=c1cc(-c2ccc(O)c(O)c2)oc2cc(O)cc(O)c12 [luteolin]
inhibiting LPS-induced NO release from RAW264.7 cells [1]: a certain effect

IC50 [2]: 3.23 ± 0.42 µM
Structure (SMILES): CCCCC/C=C/C(=O)CCc1ccc(O)c(OC)c1 [6-Shogaol, 6-shogaol]
NO Production Rate ([2]; 1.63 μM): 60.42 ± 6.14% | NO Production Rate ([2]; 3.125 μM): 56.75 ± 6.97% | NO Production Rate ([2]; 6.25 μM): 41.41 ± 2.75% | NO Production Rate ([2]; 12.5 μM): 11.42 ± 2.69% | NO Production Rate ([2]; 25 μM): 8.67 ± 0.84% | NO Production Rate ([2]; 50 μM): 6.11 ± 2.41% | NO Production Rate ([2]; 100 μM): 5.89 ± 3.38% | inhibiting LPS-induced NO release from RAW264.7 cells [1]: a certain effect

From patent publication US20260272967A1, “TRADITIONAL CHINESE MEDICINE COMPOSITION FOR TREATING LUNG INFLAMMATION RELATED DISEASES AND ITS USES” (XIYUAN HOSPITAL, CHINA ACADEMY OF CHINESE MEDICAL SCIENCES, priority 2023, published 2026)
